Drawing on ChEMBL document CHEMBL1914295, “Synthesis and biological evaluation of some novel triazol-3-ones as antimicrobial agents” (2011), this text covers zone of inhibition for 3 compounds.

Common to all, as to type: functional
Common to all, as to conditions: read-out: IZ

Experiment [1] concerns Bacillus subtilis. Nature of the experiment: Antibacterial activity against Bacillus subtilis at 200 ug/ml after 24 hrs by disc diffusion method. For orientation: A growth-free zone around the sample is the usual read-out of agar diffusion tests.
Experiment [2] concerns Klebsiella pneumoniae. Nature of the experiment: Antibacterial activity against Klebsiella pneumoniae at 100 ug/ml after 24 hrs by disc diffusion method.
Experiment [3] has as its system Escherichia coli. Nature of the experiment: Antibacterial activity against Escherichia coli at 200 ug/ml after 24 hrs by disc diffusion method.
Experiment [4] has as its system Klebsiella pneumoniae. Nature of the experiment: Antibacterial activity against Klebsiella pneumoniae at 200 ug/ml after 24 hrs by disc diffusion method.
Experiment [5] deals with Fusarium solani. Nature of the experiment: Antifungal activity against Fusarium solani at 100 ug/ml after 48 hrs by disc diffusion method.
In experiment [6] the test system is Candida albicans. Nature of the experiment: Antifungal activity against Candida albicans at 100 ug/ml after 48 hrs by disc diffusion method.
Experiment [7] deals with Escherichia coli. Nature of the experiment: Antibacterial activity against Escherichia coli at 100 ug/ml after 24 hrs by disc diffusion method.
In experiment [8] the test system is Staphylococcus aureus. Nature of the experiment: Antibacterial activity against Staphylococcus aureus at 200 ug/ml after 24 hrs by disc diffusion method.
Experiment [9] concerns Fusarium solani. Nature of the experiment: Antifungal activity against Fusarium solani at 200 ug/ml after 48 hrs by disc diffusion method.
In experiment [10] the test system is Candida albicans. Nature of the experiment: Antifungal activity against Candida albicans at 200 ug/ml after 48 hrs by disc diffusion method.
For experiment [11], the system named is Bacillus subtilis. Nature of the experiment: Antibacterial activity against Bacillus subtilis at 100 ug/ml after 24 hrs by disc diffusion method.
The test system of experiment [12] is Aspergillus niger. Nature of the experiment: Antifungal activity against Aspergillus niger at 200 ug/ml after 48 hrs by disc diffusion method.
Experiment [13] concerns Staphylococcus aureus. Nature of the experiment: Antibacterial activity against Staphylococcus aureus at 100 ug/ml after 24 hrs by disc diffusion method.
Experiment [14] deals with Aspergillus niger. Nature of the experiment: Antifungal activity against Aspergillus niger at 100 ug/ml after 48 hrs by disc diffusion method.

Take `CC(C)Cn1ncn(-c2nc3c(s2)C(C)Sc2sccc2-3)c1=O` (configuration not stated): the zone of inhibition at 200 µg/mL came to 16 mm with Bacillus subtilis [1]; 14 mm in the experiment with Escherichia coli [3]; 12 mm in the experiment with Klebsiella pneumoniae [4]; 15 mm in the experiment on Staphylococcus aureus [8]; 20 mm in the experiment on Fusarium solani [9]; 21 mm in the experiment on Candida albicans [10]. For the same compound, the zone of inhibition at 200 µg/mL in the experiment on Aspergillus niger [12] worked out at 18 mm. For the same compound, the zone of inhibition at 100 µg/mL came to 10 mm in the experiment on Klebsiella pneumoniae [2]; 16 mm in the experiment on Fusarium solani [5]; 17 mm in the experiment with Candida albicans [6]; 12 mm in the experiment with Escherichia coli [7]; 13 mm in the experiment on Bacillus subtilis [11]; 12 mm with Staphylococcus aureus [13]. For the same compound, in the experiment with Aspergillus niger [14], the zone of inhibition at 100 µg/mL amounted to 16 mm.
Regarding `CC(C)n1ncn(-c2nc(-c3ccsc3)cs2)c1=O`, the zone of inhibition at 200 µg/mL in the experiment with Bacillus subtilis [1] amounted to 23 mm; with Escherichia coli [3], 24 mm; in the experiment on Klebsiella pneumoniae [4], 29 mm; with Staphylococcus aureus [8], 27 mm; with Fusarium solani [9], 29 mm; with Candida albicans [10], 24 mm. Also, the zone of inhibition at 200 µg/mL in the experiment on Aspergillus niger [12] turned out to be 33 mm. In addition, the zone of inhibition at 100 µg/mL in the experiment on Klebsiella pneumoniae [2] turned out to be 26 mm; in the experiment on Fusarium solani [5], 27 mm; in the experiment with Candida albicans [6] it was 22 mm; in the experiment with Escherichia coli [7], 22 mm; in the experiment on Bacillus subtilis [11], 20 mm; with Staphylococcus aureus [13], 25 mm. For the same compound, the zone of inhibition at 100 µg/mL with Aspergillus niger [14] worked out at 30 mm.
For `O=c1[nH]ncn1-c1nc(-c2ccsc2)cs1`, the zone of inhibition at 200 µg/mL in the experiment with Bacillus subtilis [1] was found to be 29 mm; in the experiment with Escherichia coli [3], 26 mm; in the experiment with Klebsiella pneumoniae [4], 26 mm; in the experiment with Staphylococcus aureus [8] it was 28 mm; with Fusarium solani [9], 37 mm; with Candida albicans [10], 38 mm. In the experiment on Aspergillus niger [12], the zone of inhibition at 200 µg/mL was 39 mm. The zone of inhibition at 100 µg/mL in the experiment with Klebsiella pneumoniae [2] amounted to 22 mm; in the experiment with Fusarium solani [5], 32 mm; with Candida albicans [6], 35 mm; in the experiment with Escherichia coli [7] it was 24 mm; in the experiment with Bacillus subtilis [11], 27 mm; in the experiment on Staphylococcus aureus [13] it was 25 mm. Besides, the zone of inhibition at 100 µg/mL in the experiment on Aspergillus niger [14] is 34 mm.
